Like-named read-outs stand apart in the source and are kept apart here.
Key:
STAT6 = target: T1, STAT6 (Homo sapiens, UniProt P42226); test: STAT6 Reporter Luciferase Assay (IL-13 stimulated HaCaT keratinocyte NanoLuc reporter cells); assay type: cell-based; conditions: read-out: Reporter EC50
T1 construct: stably transfected HaCaT keratinocyte cell line, which expresses NanoLuc luciferase reporter gene under the transcriptional control of the STAT6 responsive promoter; endogenous in cells; host or cells: HaCaT keratinocyte reporter cell line (stably transfected with a NanoLuc reporter)
T1 sequence (P42226 1-847): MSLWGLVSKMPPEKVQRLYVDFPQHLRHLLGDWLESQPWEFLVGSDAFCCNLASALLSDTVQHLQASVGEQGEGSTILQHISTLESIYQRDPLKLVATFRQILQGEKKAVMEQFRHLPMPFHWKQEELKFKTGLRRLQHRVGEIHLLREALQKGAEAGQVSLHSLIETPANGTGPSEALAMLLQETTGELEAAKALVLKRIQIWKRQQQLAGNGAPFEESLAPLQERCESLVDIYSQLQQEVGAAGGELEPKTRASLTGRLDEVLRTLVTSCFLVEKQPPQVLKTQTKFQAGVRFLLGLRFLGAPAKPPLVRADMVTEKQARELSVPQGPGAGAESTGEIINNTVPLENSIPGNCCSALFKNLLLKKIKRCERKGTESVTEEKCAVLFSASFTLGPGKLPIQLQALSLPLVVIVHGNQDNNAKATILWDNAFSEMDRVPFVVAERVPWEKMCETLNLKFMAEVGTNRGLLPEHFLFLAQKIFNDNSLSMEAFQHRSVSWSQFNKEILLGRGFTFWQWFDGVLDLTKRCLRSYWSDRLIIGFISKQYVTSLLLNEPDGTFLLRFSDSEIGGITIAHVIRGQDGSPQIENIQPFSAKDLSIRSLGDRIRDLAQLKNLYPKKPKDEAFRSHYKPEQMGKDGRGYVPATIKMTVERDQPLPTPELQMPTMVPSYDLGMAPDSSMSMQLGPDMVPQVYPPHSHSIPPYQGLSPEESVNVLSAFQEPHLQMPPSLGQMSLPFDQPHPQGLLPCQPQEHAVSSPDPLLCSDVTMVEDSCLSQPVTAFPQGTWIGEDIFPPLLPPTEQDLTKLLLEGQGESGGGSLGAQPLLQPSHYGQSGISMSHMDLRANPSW
How it was run: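 IL-13 (0.12 nM, 4 h) stimulated STAT6 reporter activity in HaCaT cells after a 2 h compound pre-incubation; NanoLuc signal was measured.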

[1] = tested on: CCL17 secretion in peripheral human whole blood; test: Human Whole Blood (HWB) CCL17 TR-FRET Assay (IL-13 stimulated CCL17 secretion); assay type: cell-based; conditions: Homo sapiens, 48 h
Procedure: The IC50 (half-maximal concentration required for inhibition) of compounds for the inhibition of CCL17 secretion in peripheral human whole blood, stimulated through the IL-13-IL-13 receptor/IL-4 receptor pathway was evaluated with a TR-FRET sandwich ELISA CCL17 (TARC) Assay Kit (Bioauxilium).
Test compounds (solubilized and serially diluted in DMSO, in an 11 point, 3-fold dilution series in duplicate) were spotted, 80 nL per well, into a 384 well v-bottom polypropylene plate. Human whole blood was collected from a peripheral vein, 714 units of sodium heparin was added for every 50 mL of blood collected. Sixty μL per well of blood was added to the compound plate. The blood plate was incubated for two hours at 37° C. After two hours, CCL17 production was stimulated with the addition of 20 μL per well of IL13 (R&D Systems) in HBSS with calcium and magnesium, with a final concentration of 10 ng/mL IL13. The plate containing blood, compound, and IL-13 was incubated at 37° C. for 48 hours, to allow for CCL17 production. After 48 hours, the plate was centrifuged at 1,500 revolutions per minute (RPM) for 7 minutes, with no braking. The CCL17 TR-FRET Assay Kit detection reagent was prepared according to kit instructions and 4 μL per well of the antibody cocktail was added to a 384-well white low volume non-binding coated plate (Corning). Sixteen μL of serum from the centrifuged blood plate was transferred to the detection plate containing the TR-FRET antibody cocktail. The plate was centrifuged briefly, then covered and incubated 16 hours at room temperature. The plate was then read on an EnVision 2105 multilabel reader (PerkinElmer) with settings for TR-FRET Ratio=10,000×(fluorescence intensity 665 nm/fluorescence intensity 615 nm).

[2] = STAT6 NanoLuc luciferase reporter, IL-13 stimulated HaCaT keratinocyte cells
[3] = inhibition of CCL17 secretion in human whole blood, 10 ng/mL IL13, 48 hours
[4] = IL-13 stimulated HaCaT STAT6 NanoLuc reporter cells
[5] = human whole blood, IL-13 stimulated

CC(C)n1nc(C(=O)NCc2ccc(NC(=O)N3CCC4(CNCCO4)C3)cc2)c2c1CCN(c1ccc(C(=O)N(C)C)cn1)C2 (racemic) [Example 164, rac-(R)-N-(4-((5-(5-(dimethylcarbamoyl)pyridin-2-yl)-1-isopropyl-4,5,6,7-tetrahydro-1H-pyrazolo[4,3-c]pyridine-3-carboxamido)methyl)phenyl)-6-oxa-2,9-diazaspiro[4.5]decane-2-carboxamide]
EC50 (STAT6; [2]): 13 nM | IC50 [1, 3]: 45 nM

CO[C@@H]1CN(C(=O)Nc2ccc(CNC(=O)c3nn(C(C)C)c4c3CN(c3ccc(C(=O)N(C)C)cn3)CC4)cc2)C[C@H]1F (racemic) [Example 171, rac-5-(5-(dimethylcarbamoyl)pyridin-2-yl)-N-(4-((3R,4R)-3-fluoro-4-methoxypyrrolidine-1-carboxamido)benzyl)-1-isopropyl-4,5,6,7-tetrahydro-1H-pyrazolo[4,3-c]pyridine-3-carboxamide]
EC50 (STAT6; [2]): 5 nM | IC50 [1, 3]: 57 nM

CC(C)n1nc(C(=O)NCc2ccc(NC(=O)N3CCCC3CO)cc2)c2c1CCN(c1ccc(C(=O)N(C)C)cn1)C2 (racemic) [Example 174, rac-(R)-5-(5-(dimethylcarbamoyl)pyridin-2-yl)-N-(4-(2-(hydroxymethyl)pyrrolidine-1-carboxamido)benzyl)-1-isopropyl-4,5,6,7-tetrahydro-1H-pyrazolo[4,3-c]pyridine-3-carboxamide]
EC50 (STAT6; [2]): 40 nM | IC50 [1, 3]: 212 nM

CC(C)n1nc(C(=O)NCc2ccc(NC(=O)N(C)CC3COCCO3)cc2)c2c1CCN(c1ccc(C(=O)N(C)C)cn1)C2 (racemic) [Example 176, rac-(R)-N-(4-(3-((1,4-dioxan-2-yl)methyl)-3-methylureido)benzyl)-5-(5-(dimethylcarbamoyl)pyridin-2-yl)-1-isopropyl-4,5,6,7-tetrahydro-1H-pyrazolo[4,3-c]pyridine-3-carboxamide]
EC50 (STAT6; [2]): 12 nM | IC50 [1, 3]: 51 nM

CCc1nc(C(=O)NCc2ccc(NC(=O)N(C)C)cc2)c2n1C(C)CN(c1ccc(C(=O)N(C)C)cn1)C2 (racemic) [Example 205, rac-(R)-7-(5-(dimethylcarbamoyl)pyridin-2-yl)-N-(4-(3,3-dimethylureido)benzyl)-3-ethyl-5-methyl-5,6,7,8-tetrahydroimidazo[1,5-a]pyrazine-1-carboxamide]
EC50 (STAT6; [4]): 5 nM | IC50 [1, 5]: 19 nM

CCC1CN(c2ccc(C(=O)N(C)C)cn2)Cc2c(C(=O)NCc3ccc(NC(=O)N(C)C)cc3)nn(C(C)C)c21 (racemic) [Example 246, rac-(R)-5-(5-(dimethylcarbamoyl)pyridin-2-yl)-N-(4-(3,3-dimethylureido)benzyl)-7-ethyl-1-isopropyl-4,5,6,7-tetrahydro-1H-pyrazolo[4,3-c]pyridine-3-carboxamide]
EC50 (STAT6; [4]): 1 nM | IC50 [1, 5]: 10 nM

CCC1Cc2c(c(C(=O)NCc3ccc(NC(=O)N(C)C)cc3)nn2C(C)C)CN1c1ccc(C(=O)N(C)C)cn1 (racemic) [Example 249, rac-(R)-5-(5-(dimethylcarbamoyl)pyridin-2-yl)-N-(4-(3,3-dimethylureido)benzyl)-6-ethyl-1-isopropyl-4,5,6,7-tetrahydro-1H-pyrazolo[4,3-c]pyridine-3-carboxamide]
EC50 (STAT6; [4]): 6 nM | IC50 [1, 5]: 31 nM

CC(C)n1nc(C(=O)NCc2ccc(NC(=O)N(C)C)cc2)c2c1CC(C(F)(F)F)N(c1ccc(C(=O)N(C)C)cn1)C2 (racemic) [Example 255, rac-(R)-5-(5-(dimethylcarbamoyl)pyridin-2-yl)-N-(4-(3,3-dimethylureido)benzyl)-1-isopropyl-6-(trifluoromethyl)-4,5,6,7-tetrahydro-1H-pyrazolo[4,3-c]pyridine-3-carboxamide]
EC50 (STAT6; [4]): 3 nM | IC50 [1, 5]: 48 nM

CCC1Cc2c(c(C(=O)NCc3ccc(NC(=O)N(C)C)cc3)nn2C)CN1c1ccc(C(=O)N(C)C)cn1 (racemic) [Example 260, rac-(R)-5-(5-(dimethylcarbamoyl)pyridin-2-yl)-N-(4-(3,3-dimethylureido)benzyl)-6-ethyl-1-methyl-4,5,6,7-tetrahydro-1H-pyrazolo[4,3-c]pyridine-3-carboxamide]
EC50 (STAT6; [4]): 10 nM | IC50 [1, 5]: 64 nM

CC(C)C1CN(c2ccc(C(=O)N(C)C)cn2)Cc2c(C(=O)NCc3ccc(NC(=O)N(C)C)cc3)nn(C)c21 (racemic) [Example 265, rac-(R)-5-(5-(dimethylcarbamoyl)pyridin-2-yl)-N-(4-(3,3-dimethylureido)benzyl)-7-isopropyl-1-methyl-4,5,6,7-tetrahydro-1H-pyrazolo[4,3-c]pyridine-3-carboxamide]
EC50 (STAT6; [4]): 5 nM | IC50 [1, 5]: 37 nM

CCn1nc(C(=O)NCc2ccc(NC(=O)N(C)C)cc2)c2c1C(C(F)(F)F)CN(c1ccc(C(=O)N(C)C)cn1)C2 (racemic) [Example 282, rac-(R)-5-(5-(dimethylcarbamoyl)pyridin-2-yl)-N-(4-(3,3-dimethylureido)benzyl)-1-ethyl-7-(trifluoromethyl)-4,5,6,7-tetrahydro-1H-pyrazolo[4,3-c]pyridine-3-carboxamide]
EC50 (STAT6; [4]): 1 nM | IC50 [1, 5]: 9 nM

CCn1nc2c(c1C(=O)NCc1ccc(NC(=O)N(C)C)cc1)CN(c1ccc(C(=O)N(C)C)cn1)[C@H](C)[C@@H]2C (racemic) [Example 314, rac-(6R,7S)-5-(5-(dimethylcarbamoyl)pyridin-2-yl)-N-(4-(3,3-dimethylureido)benzyl)-2-ethyl-6,7-dimethyl-4,5,6,7-tetrahydro-2H-pyrazolo[4,3-c]pyridine-3-carboxamide]
EC50 (STAT6; [4]): 1070 nM | IC50 [1, 5]: 6850 nM

CC1CN(c2ccc(C(=O)N(C)C)cn2)Cc2c(C(=O)NCc3ccc(NC(=O)N(C)C)cc3)nn(C3COC3)c21 (racemic) [Example 321, rac-(R)-5-(5-(dimethylcarbamoyl)pyridin-2-yl)-N-(4-(3,3-dimethylureido)benzyl)-7-methyl-1-(oxetan-3-yl)-4,5,6,7-tetrahydro-1H-pyrazolo[4,3-c]pyridine-3-carboxamide]
EC50 (STAT6; [4]): 3 nM | IC50 [1, 5]: 22 nM

CC(C)n1nc(C(=O)NCc2ccc(NC(=O)N(C)C)cc2)c2c1CCN(c1ccc(C3CCCO3)cn1)C2 (racemic) [Example 322, rac-(R)—N-(4-(3,3-Dimethylureido)benzyl)-1-isopropyl-5-(5-(tetrahydrofuran-2-yl)pyridin-2-yl)-4,5,6,7-tetrahydro-1H-pyrazolo[4,3-c]pyridine-3-carboxamide]
EC50 (STAT6; [4]): 77 nM | IC50 [1, 5]: 1350 nM

CC(C)n1nc(C(=O)NCc2ccc(NC(=O)N(C)C)cc2)c2c1CCN(c1ccc(C3CCCCO3)cn1)C2 (racemic) [Example 339, rac-(R)-N-(4-(3,3-dimethylureido)benzyl)-1-isopropyl-5-(5-(tetrahydro-2H-pyran-2-yl)pyridin-2-yl)-4,5,6,7-tetrahydro-1H-pyrazolo[4,3-c]pyridine-3-carboxamide]
EC50 (STAT6; [4]): 6550 nM | IC50 [1, 5]: > 23100 nM

CC(C)n1nc(C(=O)NCc2ccc(NC(=O)N(C)C)cc2)c2c1CCN(c1ccc(C3CCOC3)cn1)C2 (racemic) [Example 345, rac-(R)-N-(4-(3,3-dimethylureido)benzyl)-1-isopropyl-5-(5-(tetrahydrofuran-3-yl)pyridin-2-yl)-4,5,6,7-tetrahydro-1H-pyrazolo[4,3-c]pyridine-3-carboxamide]
EC50 (STAT6; [4]): > 2630 nM | IC50 [1, 5]: > 30000 nM

From patent publication US20250320213A1, “Nitrogen-Containing Heterocyclic Compounds” (Pfizer Inc., priority 2024, published 2025)
